Results published in US8952024B2, “Herbicidal pyrimidone derivatives” (E I du Pont de Nemours and Company, priority 2009, dated 2015).

Experiments:
Assay in all cases: Test B pre-/postemergence plant response
Type in all cases: in vivo
[1] = tested on: Italian ryegrass (Lolium multiflorum)
Outline: (§1)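 Greenhouse herbicide screen. Pre- and postemergence (1- to 4-leaf) spray of compound in solvent/surfactant mixture; loam–sand soil for pre, peat/vermiculite medium for post. Visual control rating 0–100 at 13 to 15 days after treatment.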

[2] = tested on: blackgrass (Alopecurus myosuroides)
Outline: as §1

[3] = tested on: cocklebur (Xanthium strumarium)
Outline: as §1

[4] = tested on: corn (Zea mays)
Outline: as §1

[5] = tested on: giant foxtail (Setaria faberii)
Outline: as §1

[6] = tested on: goosegrass (Eleusine indica)
Outline: as §1

[7] = tested on: green foxtail (Setaria viridis)
Outline: as §1

[8] = tested on: johnsongrass (Sorghum halepense)
Outline: as §1

[9] = tested on: kochia (Kochia scoparia)
Outline: as §1

[10] = tested on: large crabgrass (Digitaria sanguinalis)
Outline: as §1

[11] = tested on: morningglory (Ipomoea coccinea)
Outline: as §1

[12] = tested on: ragweed (common ragweed, Ambrosia elatior)
Outline: as §1

[13] = tested on: soybean (Glycine max)
Outline: as §1

[14] = tested on: velvetleaf (Abutilon theophrasti)
Outline: as §1

[15] = Postemergence, 31 g ai/ha, scale 0 to 100 (0 no effect, 100 complete control)
[16] = Postemergence, 62 g ai/ha, scale 0 (no effect) to 100 (complete control), 13 to 15 days
[17] = Postemergence, 125 g ai/ha, visual rating after 13 to 15 days, scale 0 (no effect) to 100 (complete control)
[18] = Postemergence, 250 g ai/ha, scale 0 to 100
[19] = 250 g ai/ha, Preemergence, 0 to 100 scale
[20] = Preemergence, 31 g ai/ha, scale 0 to 100 (0 no effect, 100 complete control)
[21] = Preemergence, 62 g ai/ha, scale 0 to 100 (0 no effect, 100 complete control)
[22] = Preemergence, 125 g ai/ha, 0 to 100 scale

Structure (SMILES): Cc1ccc(-n2c(-c3ccccc3)ncc(C(=O)C3=C(O)CCCC3=O)c2=O)cc1 [Compound 8]
- Plant response rating, Ryegrass, Italian [1, 15]: 20
- Plant response rating, Ryegrass, Italian [1, 16]: 20
- Plant response rating, Ryegrass, Italian [1, 17]: 30
- Ryegrass, Italian plant response rating [1, 18]: 50
- Plant response rating, Blackgrass [2, 15]: 5
- Plant response rating, Blackgrass [2, 16]: 10
- Plant response rating, Blackgrass [2, 17]: 10
- Blackgrass plant response rating [2, 18]: 20
- Plant response rating, Cocklebur [3, 15]: 100
- Plant response rating, Cocklebur [3, 16]: 100
- Plant response rating, Cocklebur [3, 17]: 100
- Cocklebur plant response rating [3, 18]: 100
- Plant response rating, Corn [4, 15]: 15
- Plant response rating, Corn [4, 16]: 65
- Plant response rating, Corn [4, 17]: 75
- Corn plant response rating [4, 18]: 80
- Plant response rating, Foxtail, Giant [5, 15]: 98
- Plant response rating, Foxtail, Giant [5, 16]: 100
- Plant response rating, Foxtail, Giant [5, 17]: 100
- Foxtail, Giant plant response rating [5, 18]: 100
- Plant response rating, Goosegrass [6, 15]: 80
- Plant response rating, Goosegrass [6, 16]: 85
- Plant response rating, Goosegrass [6, 17]: 95
- Goosegrass plant response rating [6, 18]: 100
- Plant response rating, Foxtail, Green [7, 15]: 40
- Plant response rating, Foxtail, Green [7, 16]: 70
- Plant response rating, Foxtail, Green [7, 17]: 85
- Foxtail, Green plant response rating [7, 18]: 95
- Plant response rating, Johnsongrass [8, 15]: 80
- Plant response rating, Johnsongrass [8, 16]: 98
- Plant response rating, Johnsongrass [8, 17]: 98
- Johnsongrass plant response rating [8, 18]: 100
- Plant response rating, Kochia [9, 15]: 85
- Plant response rating, Kochia [9, 16]: 100
- Plant response rating, Kochia [9, 17]: 100
- Kochia plant response rating [9, 18]: 100
- Plant response rating, Crabgrass, Large [10, 15]: 70
- Plant response rating, Crabgrass, Large [10, 16]: 85
- Plant response rating, Crabgrass, Large [10, 17]: 90
- Crabgrass, Large plant response rating [10, 18]: 100
- Plant response rating, Morningglory [11, 15]: 75
- Plant response rating, Morningglory [11, 16]: 90
- Plant response rating, Morningglory [11, 17]: 100
- Morningglory plant response rating [11, 18]: 100
- Plant response rating, Ragweed [12, 15]: 90
- Plant response rating, Ragweed [12, 16]: 100
- Plant response rating, Ragweed [12, 17]: 100
- Ragweed plant response rating [12, 18]: 100
- Plant response rating, Soybean [13, 15]: 98
- Plant response rating, Soybean [13, 16]: 98
- Plant response rating, Soybean [13, 17]: 98
- Soybean plant response rating [13, 18]: 100
- Plant response rating, Velvetleaf [14, 15]: 75
- Plant response rating, Velvetleaf [14, 16]: 80
- Plant response rating, Velvetleaf [14, 17]: 95
- Velvetleaf plant response rating [14, 18]: 100

Structure (SMILES): Cc1ccccc1-n1c(-c2ccccc2)ncc(C(=O)C2=C(O)CCCC2=O)c1=O [Compound 12]
- Plant response rating, Ryegrass, Italian [1, 19]: 0
- Plant response rating, Ryegrass, Italian [1, 15]: 0
- Plant response rating, Ryegrass, Italian [1, 16]: 0
- Plant response rating, Ryegrass, Italian [1, 17]: 5
- Ryegrass, Italian plant response rating [1, 18]: 5
- Plant response rating, Ryegrass, Italian [1, 20]: 0
- Plant response rating, Ryegrass, Italian [1, 21]: 0
- Ryegrass, Italian plant response rating [1, 22]: 0
- Plant response rating, Blackgrass [2, 19]: 10
- Plant response rating, Blackgrass [2, 15]: 10
- Plant response rating, Blackgrass [2, 16]: 10
- Plant response rating, Blackgrass [2, 17]: 10
- Blackgrass plant response rating [2, 18]: 20
- Plant response rating, Blackgrass [2, 20]: 0
- Plant response rating, Blackgrass [2, 21]: 0
- Blackgrass plant response rating [2, 22]: 5
- Plant response rating, Cocklebur [3, 19]: 100
- Plant response rating, Cocklebur [3, 15]: 70
- Plant response rating, Cocklebur [3, 16]: 98
- Plant response rating, Cocklebur [3, 17]: 100
- Cocklebur plant response rating [3, 18]: 100
- Plant response rating, Cocklebur [3, 20]: 25
- Plant response rating, Cocklebur [3, 21]: 80
- Cocklebur plant response rating [3, 22]: 98
- Plant response rating, Corn [4, 19]: 75
- Plant response rating, Corn [4, 15]: 25
- Plant response rating, Corn [4, 16]: 30
- Plant response rating, Corn [4, 17]: 45
- Corn plant response rating [4, 18]: 75
- Plant response rating, Corn [4, 20]: 0
- Plant response rating, Corn [4, 21]: 0
- Corn plant response rating [4, 22]: 15
- Plant response rating, Foxtail, Giant [5, 19]: 100
- Plant response rating, Foxtail, Giant [5, 15]: 75
- Plant response rating, Foxtail, Giant [5, 16]: 90
- Plant response rating, Foxtail, Giant [5, 17]: 98
- Foxtail, Giant plant response rating [5, 18]: 98
- Plant response rating, Foxtail, Giant [5, 20]: 0
- Plant response rating, Foxtail, Giant [5, 21]: 20
- Foxtail, Giant plant response rating [5, 22]: 70
- Plant response rating, Goosegrass [6, 19]: 100
- Plant response rating, Goosegrass [6, 15]: 70
- Plant response rating, Goosegrass [6, 16]: 85
- Plant response rating, Goosegrass [6, 17]: 98
- Goosegrass plant response rating [6, 18]: 100
- Plant response rating, Goosegrass [6, 20]: 85
- Goosegrass plant response rating [6, 22]: 100
- Plant response rating, Foxtail, Green [7, 19]: 80
- Plant response rating, Foxtail, Green [7, 15]: 40
- Plant response rating, Foxtail, Green [7, 16]: 60
- Plant response rating, Foxtail, Green [7, 17]: 70
- Foxtail, Green plant response rating [7, 18]: 70
- Plant response rating, Foxtail, Green [7, 20]: 0
- Plant response rating, Foxtail, Green [7, 21]: 0
- Foxtail, Green plant response rating [7, 22]: 40
- Plant response rating, Johnsongrass [8, 19]: 98
- Plant response rating, Johnsongrass [8, 15]: 55
- Plant response rating, Johnsongrass [8, 16]: 60
- Plant response rating, Johnsongrass [8, 17]: 60
- Johnsongrass plant response rating [8, 18]: 75
- Plant response rating, Johnsongrass [8, 20]: 0
- Plant response rating, Johnsongrass [8, 21]: 0
- Johnsongrass plant response rating [8, 22]: 75
- Plant response rating, Kochia [9, 19]: 100
- Plant response rating, Kochia [9, 15]: 20
- Plant response rating, Kochia [9, 16]: 20
- Plant response rating, Kochia [9, 17]: 60
- Kochia plant response rating [9, 18]: 65
- Plant response rating, Kochia [9, 20]: 15
- Plant response rating, Kochia [9, 21]: 100
- Kochia plant response rating [9, 22]: 100
- Plant response rating, Crabgrass, Large [10, 19]: 100
- Plant response rating, Crabgrass, Large [10, 15]: 65
- Plant response rating, Crabgrass, Large [10, 16]: 75
- Plant response rating, Crabgrass, Large [10, 17]: 80
- Crabgrass, Large plant response rating [10, 18]: 90
- Plant response rating, Crabgrass, Large [10, 20]: 0
- Plant response rating, Crabgrass, Large [10, 21]: 90
- Crabgrass, Large plant response rating [10, 22]: 100
- Plant response rating, Morningglory [11, 19]: 100
- Plant response rating, Morningglory [11, 15]: 15
- Plant response rating, Morningglory [11, 16]: 60
- Plant response rating, Morningglory [11, 17]: 70
- Morningglory plant response rating [11, 18]: 95
- Plant response rating, Morningglory [11, 20]: 40
- Plant response rating, Morningglory [11, 21]: 55
- Morningglory plant response rating [11, 22]: 85
- Plant response rating, Ragweed [12, 19]: 100
- Plant response rating, Ragweed [12, 15]: 100
- Plant response rating, Ragweed [12, 16]: 100
- Plant response rating, Ragweed [12, 17]: 100
- Ragweed plant response rating [12, 18]: 100
- Plant response rating, Ragweed [12, 20]: 90
- Plant response rating, Ragweed [12, 21]: 98
- Ragweed plant response rating [12, 22]: 100
- Plant response rating, Soybean [13, 19]: 95
- Plant response rating, Soybean [13, 15]: 98
- Plant response rating, Soybean [13, 16]: 100
- Plant response rating, Soybean [13, 17]: 100
- Soybean plant response rating [13, 18]: 100
- Plant response rating, Soybean [13, 20]: 60
- Plant response rating, Soybean [13, 21]: 65
- Soybean plant response rating [13, 22]: 80
- Plant response rating, Velvetleaf [14, 19]: 100
- Plant response rating, Velvetleaf [14, 15]: 80
- Plant response rating, Velvetleaf [14, 16]: 85
- Plant response rating, Velvetleaf [14, 17]: 98
- Velvetleaf plant response rating [14, 18]: 100
- Plant response rating, Velvetleaf [14, 20]: 90
- Plant response rating, Velvetleaf [14, 21]: 100
- Velvetleaf plant response rating [14, 22]: 100
